Results as given in patent US20050101595A1, “N-containing cycloalkyl-substituted amino-thiazole derivatives and pharmaceutical compositions for inhibiting cell proliferation and methods for their use” (PFIZER INC., priority 2003, published 2005).
Where a name gives a salt, the structure may show the parent alone. Read-outs that look alike come from different tables or passages of the source.

Columns and labels:
HCT-116 cell line = assay: Inhibition of cell growth, tetrazolium salt (MTT) assay; assay type: cell-based; conditions: for HCT-116 % Inhibition at 0.25 μM: 0.25 μM compound; for IC50: Homo sapiens, HCT-116, 120 h, MTT, three to five days, read-out: HCT-116 IC50
Method in brief: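 Growth inhibition is scored relative to cells receiving only 0.5% (v/v) DMSO. Plated cells rest 4 h, then take compound for three to five days at 37° C; MTT reduction to formazan is read at 540 nm.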

[1] = biological target: human CDK4 and genetically truncated (1-264) cyclin D3 (Homo sapiens, UniProt P11802); assay: Inhibition of CDK4/Cyclin D Retinoblastoma Kinase Activity; assay type: biochemical; conditions: for Ki: apparent Ki, CDK4/truncated cyclin D3, Rb fragment substrate, 25 μM ATP
Sequence of human CDK4 and genetically truncated (1-264) cyclin D3 (P11802 whole entry, the tested form may be a part): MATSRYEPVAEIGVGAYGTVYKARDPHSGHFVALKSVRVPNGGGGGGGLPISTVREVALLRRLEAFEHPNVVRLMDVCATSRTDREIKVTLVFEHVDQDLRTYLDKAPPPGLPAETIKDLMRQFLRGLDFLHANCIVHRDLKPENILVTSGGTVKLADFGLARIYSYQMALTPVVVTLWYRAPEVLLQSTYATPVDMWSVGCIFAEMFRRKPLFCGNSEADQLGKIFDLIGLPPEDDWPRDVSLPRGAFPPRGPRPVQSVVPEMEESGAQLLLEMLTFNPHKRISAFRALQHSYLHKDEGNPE
Sequence of human CDK4 and genetically truncated (1-264) cyclin D3 (P30281 1-264 partner): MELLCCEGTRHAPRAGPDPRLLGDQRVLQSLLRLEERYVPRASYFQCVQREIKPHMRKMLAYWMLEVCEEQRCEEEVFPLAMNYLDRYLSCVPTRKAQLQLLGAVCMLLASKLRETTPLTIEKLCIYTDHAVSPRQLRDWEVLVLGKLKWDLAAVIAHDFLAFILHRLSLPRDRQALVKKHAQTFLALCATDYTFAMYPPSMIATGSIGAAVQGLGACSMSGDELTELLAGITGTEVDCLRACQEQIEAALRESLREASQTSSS
Method in brief: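 Read-out: 32P/33P incorporation into Rb fragment (386-928) captured on nitrocellulose, phosphorimager. Enzyme 5 nM CDK4/cyclin D3(1-264) from insect cells; ATP 25 μM, pH 7.4, 30 °C, 20 min (60 min for tight binders). Ki from competitive fits.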

CDK2/Cyclin A = CDK2/Cyclin A (Homo sapiens, UniProt P24941); assay: Inhibition of CDK2/Cyclin A Retinoblastoma Kinase Activity; assay type: biochemical; conditions: for CDK2 % Inhibition At 0.03 μM: Table 2; for Ki: apparent Ki, CDK2/proteolyzed cyclin A, Rb fragment substrate, 25 μM ATP
Method in brief: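 Human CDK2, baculovirus/insect-cell expressed, complexed with proteolyzed cyclin A (10 nM or 19 nM CDK2) phosphorylates an Rb fragment with 25 μM [32P/33P]ATP at pH 7.4, 30° C, for 60 or 75 minutes under initial-rate conditions. Filter-captured radioactivity is read by phosphorimager; apparent Ki from competitive-inhibition fits.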

[2] = 0.1 μM compound, HCT-116, Table 3

## CC(C)c1ccccc1NC(=O)N1CCC(Nc2nc(N)c(C(=O)c3c(F)cccc3F)s2)CC1 [Example O40]
HCT-116 cell line; HCT-116, Table 2
  HCT-116 % Inhibition at 0.25 μM: 3%
[1]; 0.03 μM compound, Table 2
  CDK4 % Inhibition at 0.03 μM: 6%
CDK2/Cyclin A; 0.03 μM compound
  CDK2 % Inhibition At 0.03 μM: 30%

## Nc1nc(NC2CCN(S(=O)(=O)c3ccc(NCC(O)CO)nc3)CC2)sc1C(=O)c1c(F)cccc1F (stereo not shown) [Example G19, 1-(4-Amino-2-{1-[6-(2,3-dihydroxy-propylamino)-pyridine-3-sulfonyl]-piperidin-4-ylamino}-thiazol-5-yl)-1-(2,6-difluoro-phenyl)-methanone]
HCT-116 cell line; first HCT-116 column (c4)
  IC50: 4.1 µM
HCT-116 cell line; second HCT-116 column (c5)
  IC50: > 5 µM
[1]
  Ki: 0.0034 µM
CDK2/Cyclin A
  Ki: 0.002 µM

## N#CCCCS(=O)(=O)N1CCC(Nc2nc(N)c(C(=O)c3c(F)cccc3F)s2)CC1 [Example K17, 1-(4-{4-Amino-5-[1-(2,6-difluorophenyl)methanoyl]-thiazol-2-ylamino}-piperidine-1-sulfonyl)butyronitrile.]
HCT-116 cell line; first HCT-116 column (c4)
  IC50: 0.89 µM
HCT-116 cell line; second HCT-116 column (c5)
  IC50: 2.2 µM
[1]
  Ki: 0.0034 µM
CDK2/Cyclin A
  Ki: 0.0025 µM

## Nc1nc(NC2CCN(C(=O)Nc3cccc(F)c3)CC2)sc1C(=O)c1c(F)cccc1F [Example O13]
HCT-116 cell line; HCT-116, Table 2
  HCT-116 % Inhibition at 0.25 μM: 22%
[1]; 0.03 μM compound, Table 2
  CDK4 % Inhibition at 0.03 μM: 8%
CDK2/Cyclin A; 0.03 μM compound
  CDK2 % Inhibition At 0.03 μM: 37%

## Nc1nc(NC2CCN(S(=O)(=O)c3ccc(S(=O)(=O)c4ccc(C(F)(F)F)cn4)s3)CC2)sc1C(=O)c1c(F)cccc1F [Example P43]
HCT-116 cell line; [2]
  HCT-116 % Inhibition at 0.1 μM: 0%
HCT-116 cell line; HCT-116, Table 3
  HCT-116 % Inhibition at 0.25 μM: 17%
[1]; 0.03 μM compound, Table 3
  CDK4 % Inhibition at 0.03 μM: 57%
CDK2/Cyclin A; 0.03 μM compound, Table 3
  CDK2 % Inhibition at 0.03 μM: 70%

## CN1CCN(CCc2ccc(S(=O)(=O)N3CCC(Nc4nc(N)c(C(=O)c5c(F)cccc5F)s4)CC3)cn2)CC1 [Example N4, [4-Amino-2-(1-{6-[2-(4-methyl-piperazin-1-yl)-ethyl]-pyridine-3-sulfonyl}-piperidin-4-ylamino)-thiazol-5-yl]-(2,6-difluoro-phenyl)-methanone Hydrochloride Salt.]
HCT-116 cell line; first HCT-116 column (c4)
  IC50: 0.36 µM
HCT-116 cell line; second HCT-116 column (c5)
  IC50: > 0.5 µM
[1]
  Ki: 0.00092 µM
CDK2/Cyclin A
  Ki: 0.0017 µM

## Nc1nc(NC2CCN(S(=O)(=O)c3ccc(-c4ccon4)s3)CC2)sc1C(=O)c1c(F)cccc1F [Example P64]
HCT-116 cell line; [2]
  HCT-116 % Inhibition at 0.1 μM: 13%
HCT-116 cell line; HCT-116, Table 3
  HCT-116 % Inhibition at 0.25 μM: 31%
[1]; 0.03 μM compound, Table 3
  CDK4 % Inhibition at 0.03 μM: 81%
CDK2/Cyclin A; 0.03 μM compound, Table 3
  CDK2 % Inhibition at 0.03 μM: 80%

## Nc1nc(NC2CCN(C(=O)c3sccc3Cl)CC2)sc1C(=O)c1c(F)cccc1F [Example R51]
HCT-116 cell line; HCT-116 cells, at 0.1 μM
  HCT-116 % Inhibition at 0.1 μM: 0%
HCT-116 cell line; HCT-116 cells
  HCT-116 5 Inhibition at 0.25 μM: 37
[1]; at 0.03 μM
  CDK4 % Inhibition at 0.03 μM: 48%
CDK2/Cyclin A; at 0.03 μM
  CDK2 % Inhibition at 0.03 μM: 62%

## Cc1ccc(S(=O)(=O)CC(=O)N2CCC(Nc3nc(N)c(C(=O)c4c(F)cccc4F)s3)CC2)cc1 [Example R65]
HCT-116 cell line; HCT-116 cells, at 0.1 μM
  HCT-116 % Inhibition at 0.1 μM: 3%
HCT-116 cell line; HCT-116 cells
  HCT-116 5 Inhibition at 0.25 μM: 31
[1]; at 0.03 μM
  CDK4 % Inhibition at 0.03 μM: 24%
CDK2/Cyclin A; at 0.03 μM
  CDK2 % Inhibition at 0.03 μM: 9%

## Nc1nc(NC2CCN(C(=O)c3sccc3Cl)CC2)sc1C(=O)c1c(F)cccc1F [Example C8, {4-Amino-2-[1-(3-chloro-thiophene-2-carbonyl)-piperidin-4-ylamino]-thiazol-5-yl}-(2,6-difluoro-phenyl)-methanone]
HCT-116 cell line; first HCT-116 column (c4)
  IC50: 0.46 µM
HCT-116 cell line; second HCT-116 column (c5)
  IC50: 1.3 µM
[1]
  Ki: 0.041 µM
CDK2/Cyclin A
  Ki: 0.045 µM

## Nc1nc(NC2CCN(C(=O)c3ccc(C(F)(F)F)cc3)CC2)sc1C(=O)c1c(F)cccc1F [Example R152]
HCT-116 cell line; HCT-116 cells, at 0.1 μM
  HCT-116 % Inhibition at 0.1 μM: 0%
HCT-116 cell line; HCT-116 cells
  HCT-116 5 Inhibition at 0.25 μM: 40
[1]; at 0.03 μM
  CDK4 % Inhibition at 0.03 μM: 41%
CDK2/Cyclin A; at 0.03 μM
  CDK2 % Inhibition at 0.03 μM: 17%

## COc1ccc(C(=O)N2CCC(Nc3nc(N)c(C(=O)c4c(F)cccc4F)s3)CC2)cc1 [Example C2, {4-Amino-2-[1-(4-methoxy-benzoyl)-piperidin-4-ylamino]-thiazol-5-yl}-(2,6-difluoro-phenyl)-methanone]
HCT-116 cell line; first HCT-116 column (c4)
  IC50: 0.77 µM
HCT-116 cell line; second HCT-116 column (c5)
  IC50: 1.9 µM
[1]
  Ki: 0.0096 µM
CDK2/Cyclin A
  Ki: 0.065 µM
